# Measurements taken from US11518758B2, “Heteroarylaminopyrimidine amide autophagy inhibitors and methods of use thereof” (Deciphera Pharmaceuticals, LLC, priority 2019, dated 2022).
# pIC50: −log10 of the molar value.
# System: phospho-Serine 318 ATG13 (pATG13) in T24 cells
# Test: pATG13 levels of mutant HRas T24 cells after treatment with ULK inhibitors in combination with trametinib (ELISA)
# Type: cell-based, human
# Details: with 250 nM trametinib
# Description: Example 181. pATG13 Levels of Mutant HRas T24 Cells after Treatment with ULK Inhibitors in Combination with Trametinib
# (§1) T24 human urinary bladder cancer cells (25000 cells/well) were added to a 96-well tissue-culture treated plate in 100 μL of pre-warmed DMEM medium supplemented with 10% characterized fetal bovine serum (Invitrogen, Carlsbad, Calif.), 100 units/mL penicillin G, and 100 μg/mL streptomycin and allowed to grow overnight at 37° C., 5% CO2, and 95% humidity. The following day, 100 μL of media containing trametinib or DMSO as a control was added to wells. The final concentration of trametinib in wells was 250 nM. A dose response of a test compound (0.5 μL per well) was added. DMSO (0.5 μL) was added to control wells. The plate was briefly shaken to mix wells and then incubated at 37° C. overnight. The next day, the media was aspirated and cells were washed with Dulbecco's Phosphate Buffered Saline (Gibco). Cells were lysed using MPER lysis buffer (Pierce, Rockford, Ill.) containing Halt Phosphatase and Protease Inhibitors (Pierce, Rockford, Ill.) and Phosphatase inhibitor cocktail 2 (Sigma, St. Louis, Mo.) at 4° C. for 10 minutes with shaking.
# (§2) Cellular levels of phospho-Serine 318 ATG13 (pATG13) were measured via an ELISA method. Total ATG13 Antibody (Cell Signaling Cat #13273) was used to coat the wells. The plate was incubated at 4° C. overnight and washed with ELISA wash buffer (Biolegend Cat #421601). The wells were then blocked with assay diluent (Biolegend Cat #421203) for 1 hour at room temperature. Plate wells were washed with ELISA wash buffer. Cell lysate was added to wells and incubated at room temperature for 2 hours. Plate wells were washed with ELISA wash buffer. Biotinylated pS318-ATG13 antibody (Rockland Immunochemicals Cat #600-401-C49) was diluted in assay diluent and added to each well and incubated at room temperature for 1 hour. Plate wells were washed with ELISA wash buffer. Streptavidin linked to horseradish peroxidase (Thermo Fisher Cat #21140) was diluted in assay diluent and added to each well and incubated at room temperature for 1 hour. Plate wells were washed with ELISA wash buffer. High sensitivity TMB substrate (Biolegend Cat #421101) was added to each well and incubated at room temperature for 20 minutes. The reaction was stopped with 2N Sulfuric Acid. The plate was analyzed at on a plate reader measuring absorbance at 450 nm and 540 nm (background). Signal was calculated by first subtracting the background absorbance at 540 nm from the absorbance at 450 nm for each well. Next, the background corrected absorbance at 450 nm from blank wells was subtracted from test wells. Data was compared to control wells to determine % ATG13 phosphorylation. GraphPad Prism was used to calculate IC50 values.
row,Compound,pIC50
1,Cc1nn(C2CCN(C)CC2)cc1Nc1ncc(Cl)c(NCCCN2CCCOCC2=O)n1 [Example 105],6.52 to 7.00
2,Cc1nn(CCCN2CCOCC2)cc1Nc1ncc(C(F)(F)F)c(NCCCN2CCCCCC2=O)n1 [Example 100],6.52 to 7.00

# The remaining lines, values ahead:
row,pIC50,Compound
1,7.00 to 8.00,CN(C)CCn1cc(Nc2ncc(C(F)(F)F)c(NCCCN3CCCCC3=O)n2)cn1 [Example 32]
2,7.00 to 8.00,Cc1nn(C2CCN(C)CC2)cc1Nc1ncc(C(F)(F)F)c(NCCCN2CCCCC2=O)n1 [Example 8]
3,6.52 to 7.00,Cc1nn([C@@H]2CCN(C)C2)cc1Nc1ncc(C(F)(F)F)c(NCCCN2CCCCC2=O)n1 [Example 18]
4,7.00 to 8.00,Cc1nn(C2CCN(C(C)C)CC2)cc1Nc1ncc(C(F)(F)F)c(NCCCN2CCCCC2=O)n1 [Example 15]
5,7.00 to 8.00,Cc1nn(C2CCN(C)CC2)cc1Nc1ncc(C(F)(F)F)c(NCCCN2CCOCCC2=O)n1 [Example 127]
6,6.52 to 7.00,Cc1nn(C2CCN(C(C)C)CC2)cc1Nc1ncc(C(F)(F)F)c(NCCCN2CCCOC2=O)n1 [Example 68]

# System: phospho-Serine 318 ATG13 (pATG13) in A375 cells
# Test: pATG13 levels of mutant BRAF A375 cells after treatment with ULK inhibitors in combination with trametinib (ELISA)
# Type: cell-based, human
# Details: not given
# Description: Example 180. pATG13 Levels of Mutant BRAF A375 Cells after Treatment with ULK Inhibitors in Combination with Trametinib
# as §1, with “A375” for “T24”, “malignant melanoma” for “urinary bladder”, “(20000” for “(25000”
# as §2
row,Compound,pIC50
1,CCc1nn(C2CCN(C)CC2)cc1Nc1ncc(Br)c(NCCCN2CCCCC2=O)n1 [Example 53],6.52 to 7.00
2,Cc1nn([C@H]2CCN(C)C2)cc1Nc1ncc(Br)c(NCCCN2CCCCC2=O)n1 [Example 61],7.00 to 8.00

# Results, then the molecule that gave them:
row,pIC50,Compound
1,7.00 to 8.00,Cc1nn(C2CCN(C)CC2)cc1Nc1ncc(C(F)(F)F)c(NCCCN2CCCCC2=O)n1 [Example 8]
2,7.00 to 8.00,Cc1nn([C@@H]2CCN(C)C2)cc1Nc1ncc(C(F)(F)F)c(NCCCN2CCCCC2=O)n1 [Example 18]
3,7.00 to 8.00,Cc1nn(C2CCN(C(C)C)CC2)cc1Nc1ncc(C(F)(F)F)c(NCCCN2CCCCC2=O)n1 [Example 15]
4,7.00 to 8.00,Cc1nn(C2CCN(C)CC2)cc1Nc1ncc(C(F)(F)F)c(NCCCN2CCOCCC2=O)n1 [Example 127]
5,6.52 to 7.00,Cc1nn(C2CCN(C(C)C)CC2)cc1Nc1ncc(C(F)(F)F)c(NCCCN2CCCOC2=O)n1 [Example 68]

# System: phospho-Serine 318 ATG13 (pATG13) in MiaPaCa-2 cells
# Test: pATG13 levels of mutant KRas MiaPaCa-2 cells after treatment with ULK inhibitors in combination with trametinib (ELISA)
# Type: cell-based, human
# Details: not given
# Description: Example 178. pATG13 Levels of Mutant KRas MiaPaCa-2 Cells after Treatment with ULK Inhibitors in Combination with Trametinib
# MiaPaCa-2 human pancreatic cancer cells (10000 cells/well) were added to a 384-well tissue-culture treated plate in 50 μL of pre-warmed DMEM medium supplemented with 10% characterized fetal bovine serum (Invitrogen, Carlsbad, Calif.), 100 units/mL penicillin G, 100 μg/mL streptomycin, and 2.5% Horse Serum and allowed to grow overnight at 37° C., 5% CO2, and 95% humidity. The following day, 10 μL of media containing trametinib or DMSO as a control was added to wells. The final concentration of trametinib in wells was 250 nM. A dose response of a test compound (0.6 μL per well) was added. DMSO (0.6 μL) was added to control wells. The plate was briefly shaken to mix wells and then incubated at 37° C. overnight. The next day, the media was aspirated and cells were washed with Dulbecco's Phosphate Buffered Saline (Gibco). Cells were lysed using MPER lysis buffer (Pierce, Rockford, Ill.) containing Halt Phosphatase and Protease Inhibitors (Pierce, Rockford, Ill.) and Phosphatase inhibitor cocktail 2 (Sigma, St. Louis, Mo.) at 4° C. for 10 minutes with shaking.
# as §2
row,Compound,pIC50
1,Cc1nn(C2CCN(C)CC2)cc1Nc1ncc(Cl)c(NCCCN2CCCOCC2=O)n1 [Example 105],6.52 to 7.00
2,Cc1nn([C@@H]2CCN(C)C2)cc1Nc1ncc(C(F)(F)F)c(NCCCN2CCCOCC2=O)n1 [Example 106],7.00 to 8.00
3,CCc1nn(C2CCN(C)CC2)cc1Nc1ncc(Br)c(NCCCN2CCCCC2=O)n1 [Example 53],6.52 to 7.00
4,CCN1CCC(n2cc(Nc3ncc(C(F)(F)F)c(NCCCN4CCCOCC4=O)n3)c(C)n2)CC1 [Example 107],6.52 to 7.00
5,Cc1nn(CCN(C)C)cc1Nc1ncc(C(F)(F)F)c(NCCCN2CCCCC2=O)n1 [Example 21],6.52 to 7.00
6,CCN1CC[C@H](n2cc(Nc3ncc(Br)c(NCCCN4CCCCC4=O)n3)c(C)n2)C1 [Example 64],7.00 to 8.00
7,CCN1CCC(n2cc(Nc3ncc(C(F)(F)F)c(NCCCN4CCOCCC4=O)n3)c(C)n2)CC1 [Example 130],7.00 to 8.00
8,Cc1nn(CCCN2CCOCC2)cc1Nc1ncc(C(F)(F)F)c(NCCCN2CCCCCC2=O)n1 [Example 100],6.52 to 7.00
9,Cc1nn([C@H]2CCN(C)C2)cc1Nc1ncc(Br)c(NCCCN2CCCCC2=O)n1 [Example 61],7.00 to 8.00

# Further lines, results first:
row,pIC50,Compound
1,7.00 to 8.00,CN(C)CCn1cc(Nc2ncc(C(F)(F)F)c(NCCCN3CCCCC3=O)n2)cn1 [Example 32]
2,7.00 to 8.00,CC(C)N1CCC(n2cc(Nc3ncc(C(F)(F)F)c(NCCCN4CCCCC4=O)n3)cn2)CC1 [Example 6]
3,6.52 to 7.00,Cc1nn(C2CCN(C(C)C)CC2)cc1Nc1ncc(C(F)(F)F)c(NCCCN2CCOCCC2=O)n1 [Example 131]
4,7.00 to 8.00,Cc1nn(C2CCN(C)CC2)cc1Nc1ncc(C(F)(F)F)c(NCCCN2CCCCCC2=O)n1 [Example 79]
5,7.00 to 8.00,Cc1nn(C2CCN(C(C)C)CC2)cc1Nc1ncc(C(F)(F)F)c(NCCCN2CCCCC2=O)n1 [Example 15]
6,6.52 to 7.00,Cc1nn(C2CCN(C(C)C)CC2)cc1Nc1ncc(C(F)(F)F)c(NCCCN2CCCOCC2=O)n1 [Example 108]
7,7.00 to 8.00,Cc1nn(C2CCN(C)CC2)cc1Nc1ncc(C(F)(F)F)c(NCCCN2CCOCCC2=O)n1 [Example 127]
8,7.00 to 8.00,Cc1nn(C2CCN(C(C)C)CC2)cc1Nc1ncc(C(F)(F)F)c(NCCCN2CCCOC2=O)n1 [Example 68]
9,7.00 to 8.00,Cc1nn(C2CCN(C)CC2)cc1Nc1ncc(C(F)(F)F)c(NCCCN2CCCOCC2=O)n1 [Example 102]

# System: phospho-Serine 318 ATG13 (pATG13), ULK kinase substrate, in A549 (KRAS mutant) cells
# Test: pATG13 levels of mutant KRas A549 cells after treatment with ULK inhibitors in combination with trametinib (ELISA)
# Type: cell-based, human
# Details: with 250 nM trametinib
# How it was run: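 A549 cells grown overnight were treated overnight at 37 °C with a dose response of test compound plus 250 nM trametinib (final) or DMSO. Lysates were assayed by sandwich ELISA, with total ATG13 capture and biotinylated pS318-ATG13 detection read at 450 nm minus 540 nm, giving % phosphorylation against control and IC50.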
row,Compound,pIC50
1,Cc1nn(C2CCN(C)CC2)cc1Nc1ncc(Cl)c(NCCCN2CCCOCC2=O)n1 [Example 105],< 6.22
2,Cc1nn([C@@H]2CCN(C)C2)cc1Nc1ncc(C(F)(F)F)c(NCCCN2CCCOCC2=O)n1 [Example 106],6.52 to 7.00
3,CCc1nn(C2CCN(C)CC2)cc1Nc1ncc(Br)c(NCCCN2CCCCC2=O)n1 [Example 53],6.52 to 7.00
4,CCN1CCC(n2cc(Nc3ncc(C(F)(F)F)c(NCCCN4CCCOCC4=O)n3)c(C)n2)CC1 [Example 107],6.52 to 7.00
5,Cc1nn(CCN(C)C)cc1Nc1ncc(C(F)(F)F)c(NCCCN2CCCCC2=O)n1 [Example 21],6.22 to 6.52
6,CCN1CC[C@H](n2cc(Nc3ncc(Br)c(NCCCN4CCCCC4=O)n3)c(C)n2)C1 [Example 64],6.52 to 7.00
7,CCN1CCC(n2cc(Nc3ncc(C(F)(F)F)c(NCCCN4CCOCCC4=O)n3)c(C)n2)CC1 [Example 130],6.52 to 7.00
8,Cc1nn(CCCN2CCOCC2)cc1Nc1ncc(C(F)(F)F)c(NCCCN2CCCCCC2=O)n1 [Example 100],6.52 to 7.00
9,Cc1nn([C@H]2CCN(C)C2)cc1Nc1ncc(Br)c(NCCCN2CCCCC2=O)n1 [Example 61],6.52 to 7.00

# Next, values leading:
row,pIC50,Compound
1,6.52 to 7.00,CN(C)CCn1cc(Nc2ncc(C(F)(F)F)c(NCCCN3CCCCC3=O)n2)cn1 [Example 32]
2,7.00 to 8.00,Cc1nn(C2CCN(C)CC2)cc1Nc1ncc(C(F)(F)F)c(NCCCN2CCCCC2=O)n1 [Example 8]
3,7.00 to 8.00,CC(C)N1CCC(n2cc(Nc3ncc(C(F)(F)F)c(NCCCN4CCCCC4=O)n3)cn2)CC1 [Example 6]
4,6.22 to 6.52,Cc1nn(C2CCN(C(C)C)CC2)cc1Nc1ncc(C(F)(F)F)c(NCCCN2CCOCCC2=O)n1 [Example 131]
5,6.52 to 7.00,Cc1nn([C@@H]2CCN(C)C2)cc1Nc1ncc(C(F)(F)F)c(NCCCN2CCCCC2=O)n1 [Example 18]
6,7.00 to 8.00,Cc1nn(C2CCN(C)CC2)cc1Nc1ncc(C(F)(F)F)c(NCCCN2CCCCCC2=O)n1 [Example 79]
7,7.00 to 8.00,Cc1nn(C2CCN(C(C)C)CC2)cc1Nc1ncc(C(F)(F)F)c(NCCCN2CCCCC2=O)n1 [Example 15]
8,6.22 to 6.52,Cc1nn(C2CCN(C(C)C)CC2)cc1Nc1ncc(C(F)(F)F)c(NCCCN2CCCOCC2=O)n1 [Example 108]
9,6.52 to 7.00,Cc1nn(C2CCN(C)CC2)cc1Nc1ncc(C(F)(F)F)c(NCCCN2CCOCCC2=O)n1 [Example 127]
10,6.22 to 6.52,Cc1nn(C2CCN(C(C)C)CC2)cc1Nc1ncc(C(F)(F)F)c(NCCCN2CCCOC2=O)n1 [Example 68]
11,6.52 to 7.00,Cc1nn(C2CCN(C)CC2)cc1Nc1ncc(C(F)(F)F)c(NCCCN2CCCOCC2=O)n1 [Example 102]
